Test results reported in patent publication EP4140481A1, “PROTEIN-OLIGOMER BINDING AGENTS AND THERAPEUTIC USES THEREOF” (Galyan Bio, Inc., priority 2021, dated 2023).
Converted amounts (≈) assume the structure as drawn. “And” between values parts separate entries of the source, which are not always exact repeats. Equal entries are not always repeated.

Columns and labels:
[1] = Log D; type: physicochemical; conditions: pH 7.4; pH 7,4
[2] = biological target: T1, wildtype huntingtin (Mus musculus, UniProt P42859); assay: Wildtype huntingtin levels (immunofluorescence); type: cell-based; conditions: STHdh 7/7 in comparison to non-treated STHdh 7/7
T1 construct: host or cells: ST HDH Q7/7 mouse striatal cell line

[3] = Thermodynamic solubility; type: physicochemical; conditions: thermodynamic from solid
[4] = biological target: Exon1 Q46 (Homo sapiens, UniProt P42858, INS38QQQQQQQQQQQQQQQQQQQQQQQQQ); assay: Circular dichroism study; type: binding
Experimental: Protein samples were diluted with buffer to 7.5 µM prior to Circular Dichroism (CD) measurements. Measurements were conducted at room temperature.
Four spectra at each measurement were taken every 1 nm from 200 to 260 nm, scanning at 50 nm/min with an averaging time of 1 sec. Spectra were obtained from samples in 20 mM phosphate, pH 7.4. Ten scans were averaged for each sample spectrum
Single-wavelength readings at 222 nm were obtained. After subtraction of the Trx contribution, the α-helical content of Httex1 was estimated from its mean residue ellipticity (MREHttex1) at 222 nm. This calculation was conducted as described by Bravo-Arredondo (Bravo-Arredondo, J.M. et al., J Biol Chem. 2018 Dec 21;293(51):19613-19623).
MRE Exon-1 Q16 and Q46 (Mean Residue Ellipticity) was measured every 1 sec for 300 sec; the 301 readings for each sample were averaged and MRE Trx subtracted. The number of amino acids in each sample to experience a change in helicity was estimated using a previously developed helix-coil transition model, which gave the change in fraction of helicity (ΔfHelix) by the following equation: fHelix = (MREHttex1 −MRECoil)/(MREHelix −MRECoil) [formula] where MRE Exon1 Q26 or Q46 (MREHttex1 in the formula) describes the helix-coil transition, obtained from the difference between MRE Eon1 Q26 or Q46 at 222 nm of the fusion protein at the given temperature (in our case 37 °C) and the product of MRE Trx at 222 nm at the same temperature and the fraction of residues comprised by Trx in that particular construct, and MRECoil = 2220−53T,MREHelix =; (−44,000+250T)(1−(3)/(Nr)) [formula] given T as the temperature in °C and Nr as the number of residues.
In order to calculate an equilibrium of the two states model, percent α-helicity was calculated using the relation of MREHttex1 = 0 and -34700 (deg cm^2 dmol^-1) for 0% and 100% helicity, respectively. Table 14: Comparison between Kd, reversal of conformational changes of Exon1 Q46 and reduction of mHTT in comparison to untreated striatal neurons
The CD measurements protocol for Compound 101 was the same as outlined above except that from 206 nm - 210 nm and 220 nm - 224 nm, the step size was 0.2 nm, and the bandwidth was 1nm.

[5] = biological target: T2, mHTT (Homo sapiens, UniProt P42858); assay: mHTT levels in striatal cells (immunocytochemistry); type: cell-based, mouse; conditions: for mHTT after 3 h heat shock and following 48 hours of compound treatment in comparison to untreated STHdh 111/111 / remaining activity at 10 µM: STHdh 111/111; for remaining activity at 10 µM: 3 hours heat shock, 48 hours treatment, percentage in comparison to untreated STHdh 111/111, 3B5H10 antibody, read-out: mHTT after treatment
T2 construct: host or cells: ST HDH Q111/111 mouse striatal cell line (knock-in locus)
Experimental: (§1) Staining - Cells were permeabilized with 0.3% Triton X-100 in 4 °C PBS (pH 7.4 from ThermoFisher) for 10 minutes. Then the cells were washed two times with 4 °C PBS. Subsequently, cells are blocked with 3% NGS (normal goat serum from Thermo Fisher) in 4 ° C PBS for 1 hour. Cells were incubated with primary antibodies in blocking buffer (PBS, 3% NGS, 0.02% NaN3) over night at 4 °C. Primary antibodies were mouse antipolyglutamine monoclonal antibody 3B5H10 (Sigma-Aldrich) at 1:250 dilution and Guinea Pig anti-MAP2 polyclonal antibody (Synaptic Systems) at 1:500 dilution. 3B5H10 binds to diffuse mHTT. Diffuse mHTT is a monomeric and small oligomeric mHTT. Diffuse mHTT is correlated to pathological parameters in Huntington's disease. Compounds that bind the mHTT will reduce the levels of diffuse mHTT detected.
Cells were washed 2 times with 4 °C PBS, and then incubated with secondary antibodies at 1:2000 dilution in blocking buffer for 1hour at room temperature. […] Cells were washed 2 times with 4 °C PBS, and then the nuclei were counterstain with DAPI (ThermoFisher) for 10 min at room temperature in the dark. Cells were washed 2 times with 4 °C PBS, and then 4 °C PBS was added to cells and then images were acquired. […] Table 11: Antibodies Used in Immunocytochemistry Studies
Fluorescence Imaging - Imaging sessions were performed on a confocal microscope system (Carl Zeiss Microscopy) equipped with a dual spinning disk unit (Yokogawa). All components of the imaging system were controlled via the ZEN 2 software suite (Carl Zeiss Microscopy). The laser lines used were 405 nm, 488 nm and 639 nm to excite DAPI or the respective fluorophores. […] Nested t test was performed to calculate the significance amongst repeated measurements using GraphPad Prism software.
as §1, with “For LC3 staining primary antibodies were mouse anti-LC3 mab (5F10) (nanoTools) at 1:500 dilution” for “3B5H10 binds to diffuse mHTT. Diffuse mHTT is a monomeric”, “Guinea Pig anti-MAP2 polyclonal antibody (Synaptic Systems) at 1:500 dilution.” for “small oligomeric mHTT. Diffuse mHTT is correlated to pathological parameters in Huntington's disease. Compounds that bind the mHTT will reduce the levels of diffuse mHTT detected.”
Cells were washed 2 times with 4 °C PBS, and then incubated with secondary antibodies at 1:2000 dilution in blocking buffer for 1hour at room temperature. […] Cells were washed 2 times with 4 °C PBS, and then the nuclei were counterstain with DAPI (ThermoFisher) for 10 min at room temperature in the dark. Cells were washed 2 times with 4 °C PBS, and then 4 °C PBS was added to cells and then images were acquired.
EC 50 value was determined with non-linear regression.

[6] = Kinetic solubility; type: physicochemical; conditions: kinetic from dmso stock
[7] = biological target: T3, Wild type (wt) α-Synuclein (Homo sapiens, UniProt P37840); assay: Dynamic Light Scattering (DLS), induced aggregation; type: biochemical
T3 construct: purchased rPeptide, Watkinsville, Georgia S-1001-2

Exon1 Q46, sequence (P42858 with tags, fused parts or gaps with the stated changes): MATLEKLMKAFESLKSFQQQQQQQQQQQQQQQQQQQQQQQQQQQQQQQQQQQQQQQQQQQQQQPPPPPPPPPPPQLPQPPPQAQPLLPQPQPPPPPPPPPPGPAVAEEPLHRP
T2 sequence (P42858 with tags, fused parts or gaps with the stated changes): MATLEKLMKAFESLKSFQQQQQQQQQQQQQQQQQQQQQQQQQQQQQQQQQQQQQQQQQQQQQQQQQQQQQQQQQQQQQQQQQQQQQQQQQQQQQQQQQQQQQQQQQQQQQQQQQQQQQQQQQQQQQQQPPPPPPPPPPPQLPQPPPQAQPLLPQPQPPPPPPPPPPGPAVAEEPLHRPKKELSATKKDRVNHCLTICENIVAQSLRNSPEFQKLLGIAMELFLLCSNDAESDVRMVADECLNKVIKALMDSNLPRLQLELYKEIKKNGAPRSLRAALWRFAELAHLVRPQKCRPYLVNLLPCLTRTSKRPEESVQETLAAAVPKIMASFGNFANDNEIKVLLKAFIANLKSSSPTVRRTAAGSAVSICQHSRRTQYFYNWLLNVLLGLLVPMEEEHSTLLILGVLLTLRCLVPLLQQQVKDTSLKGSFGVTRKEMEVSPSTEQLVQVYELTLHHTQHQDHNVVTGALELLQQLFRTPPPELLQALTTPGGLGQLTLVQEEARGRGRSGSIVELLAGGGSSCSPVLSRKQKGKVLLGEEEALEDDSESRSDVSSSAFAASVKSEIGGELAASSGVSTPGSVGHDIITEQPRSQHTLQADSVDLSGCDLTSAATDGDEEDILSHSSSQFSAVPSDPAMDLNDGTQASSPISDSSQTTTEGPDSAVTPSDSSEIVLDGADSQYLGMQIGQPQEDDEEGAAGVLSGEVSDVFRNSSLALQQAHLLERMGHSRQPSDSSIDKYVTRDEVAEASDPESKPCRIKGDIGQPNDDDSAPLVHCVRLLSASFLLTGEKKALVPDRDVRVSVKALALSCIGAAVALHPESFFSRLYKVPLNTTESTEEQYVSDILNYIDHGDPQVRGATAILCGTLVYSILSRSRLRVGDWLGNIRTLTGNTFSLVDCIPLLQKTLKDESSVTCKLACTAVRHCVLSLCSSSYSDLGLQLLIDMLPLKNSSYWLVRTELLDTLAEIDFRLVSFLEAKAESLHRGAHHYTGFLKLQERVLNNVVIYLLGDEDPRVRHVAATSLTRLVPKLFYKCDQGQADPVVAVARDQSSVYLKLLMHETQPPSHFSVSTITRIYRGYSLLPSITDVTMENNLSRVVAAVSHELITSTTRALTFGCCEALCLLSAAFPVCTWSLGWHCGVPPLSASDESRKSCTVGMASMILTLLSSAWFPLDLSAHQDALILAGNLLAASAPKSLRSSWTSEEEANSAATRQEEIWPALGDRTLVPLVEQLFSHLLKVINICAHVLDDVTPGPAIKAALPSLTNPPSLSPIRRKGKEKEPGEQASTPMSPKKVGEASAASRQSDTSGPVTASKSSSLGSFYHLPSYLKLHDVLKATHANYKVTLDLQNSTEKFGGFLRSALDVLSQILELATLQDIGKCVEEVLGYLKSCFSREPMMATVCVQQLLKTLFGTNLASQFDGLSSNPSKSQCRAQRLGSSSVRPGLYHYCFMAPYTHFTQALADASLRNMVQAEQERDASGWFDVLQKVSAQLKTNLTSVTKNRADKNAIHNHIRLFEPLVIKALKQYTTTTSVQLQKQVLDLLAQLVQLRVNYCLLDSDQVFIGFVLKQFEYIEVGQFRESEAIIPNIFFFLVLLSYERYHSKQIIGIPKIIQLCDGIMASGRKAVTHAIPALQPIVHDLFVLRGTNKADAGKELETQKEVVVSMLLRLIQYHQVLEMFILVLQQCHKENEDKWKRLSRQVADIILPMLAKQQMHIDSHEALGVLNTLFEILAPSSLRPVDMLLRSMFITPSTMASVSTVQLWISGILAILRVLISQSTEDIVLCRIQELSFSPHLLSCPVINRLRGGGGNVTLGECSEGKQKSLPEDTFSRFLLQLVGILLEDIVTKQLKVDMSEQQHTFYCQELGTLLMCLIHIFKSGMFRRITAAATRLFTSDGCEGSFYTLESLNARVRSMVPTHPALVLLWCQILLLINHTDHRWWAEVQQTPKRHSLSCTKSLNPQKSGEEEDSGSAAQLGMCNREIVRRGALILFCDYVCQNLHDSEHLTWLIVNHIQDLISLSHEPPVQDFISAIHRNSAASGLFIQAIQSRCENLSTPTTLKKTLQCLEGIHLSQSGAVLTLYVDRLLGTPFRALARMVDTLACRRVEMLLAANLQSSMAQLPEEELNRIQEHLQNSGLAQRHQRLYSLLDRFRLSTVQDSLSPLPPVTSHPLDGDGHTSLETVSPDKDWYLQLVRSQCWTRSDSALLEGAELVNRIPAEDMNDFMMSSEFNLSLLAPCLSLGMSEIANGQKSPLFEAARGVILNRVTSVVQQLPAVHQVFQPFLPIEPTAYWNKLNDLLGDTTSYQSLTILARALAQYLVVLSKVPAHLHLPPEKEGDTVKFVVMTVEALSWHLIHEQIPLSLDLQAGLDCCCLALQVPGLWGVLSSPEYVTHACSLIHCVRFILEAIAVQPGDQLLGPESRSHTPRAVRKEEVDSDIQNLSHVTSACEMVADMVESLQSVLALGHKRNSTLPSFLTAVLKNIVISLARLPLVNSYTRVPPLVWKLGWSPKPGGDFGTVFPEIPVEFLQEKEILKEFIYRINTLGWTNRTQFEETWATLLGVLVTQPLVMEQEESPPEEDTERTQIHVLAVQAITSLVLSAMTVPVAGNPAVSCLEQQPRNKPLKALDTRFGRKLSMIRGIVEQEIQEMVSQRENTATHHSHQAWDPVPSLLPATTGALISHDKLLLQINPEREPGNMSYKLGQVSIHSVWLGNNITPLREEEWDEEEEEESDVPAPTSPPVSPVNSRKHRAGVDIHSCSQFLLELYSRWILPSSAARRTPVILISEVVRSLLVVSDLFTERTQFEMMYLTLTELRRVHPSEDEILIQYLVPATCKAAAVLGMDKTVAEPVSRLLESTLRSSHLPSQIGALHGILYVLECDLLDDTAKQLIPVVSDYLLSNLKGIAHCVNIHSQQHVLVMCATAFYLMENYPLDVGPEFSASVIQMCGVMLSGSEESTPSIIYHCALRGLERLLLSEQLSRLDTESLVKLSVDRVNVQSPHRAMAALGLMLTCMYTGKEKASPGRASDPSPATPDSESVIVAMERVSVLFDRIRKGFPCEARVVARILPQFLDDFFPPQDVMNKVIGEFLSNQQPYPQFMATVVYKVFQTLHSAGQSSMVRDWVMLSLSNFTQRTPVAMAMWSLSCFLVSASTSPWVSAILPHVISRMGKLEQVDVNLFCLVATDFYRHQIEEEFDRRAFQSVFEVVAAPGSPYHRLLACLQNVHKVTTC

In the case of Cc1[nH]c2ccc(C(=O)NCCN(C(C)C)C(C)C)cc2c1C [Compound 22], the logD [1] is reported as 1.21, the wildtype huntingtin level [2] is reported as “not reduced” and the solubility thermodynamic [3] is reported as 2100 µM (≈ 662 µg/mL). The “proportion of a predominantly α-helical state of Exon1 Q46 after treatment” value ([4]; 2 µM) was 21.4%, the “Reduction of the proportion of a predominantly α-helical state to wildtype levels” value ([4]; 2 µM compound exposure) was 36.7% and 36.6% and the Kd ([4]; Exon1 Q46) was 700 nM. For the same molecule, the Kd ([4]; Exon1 Q46 protein) was 701 nM, the “mHTT after 3 h heat shock and following 48 hours of compound treatment in comparison to untreated STHdh 111/111” value [5] was 46% and the remaining activity at 10 µM [5] was 46%. For the same molecule, the “mHTT lowering with autophagy inhibitor” value ([5]; STHdh 111/111 exposed to 10 mM NH4Cl) was “blocked the mHTT lowering effects of Compound 22 completely”, the “Nuclear diffuse mHTT reduction” value ([5]; STHdh 111/111 in comparison to untreated cells, p = 0.02) was 32% and the solubility kinetic [6] was 188 µM (≈ 59.3 µg/mL).

With CCc1c(C)[nH]c2ccc(C(=O)NCCN(CC)CC)cc12 [Compound 4, N-(2-(diethylamino)ethyl)-3-ethyl-2-methyl-1H-indole-5-carboxamide] the logD [1] was 2.02, the wildtype huntingtin level [2] was “not reduced” and the solubility thermodynamic [3] was 5100 µM (≈ 1540 µg/mL). For the same molecule, the Kd ([4]; Exon1 Q46) was 60 nM, the “Fraction Helix fH” value ([4]; Exon1 Q46, conc. Compound 0.01 µM) was 22.4% and the “Fraction Helix fH” value ([4]; Exon1 Q46, conc. Compound 0.059 µM) was 20.9%. For the same molecule, the “Fraction Helix fH” value ([4]; Exon1 Q46, conc. Compound 0.158 µM) was 21.1%, the “Fraction Helix fH” value ([4]; Exon1 Q46, conc. Compound 0.647 µM) was 20.0% and the “Fraction Helix fH” value ([4]; Exon1 Q46, conc. Compound 1.62 µM) was 19.5%. For the same molecule, the “Fraction Helix fH” value ([4]; Exon1 Q46, conc. Compound 4.04 µM) was 19.3%, the “Fraction Helix fH” value ([4]; Exon1 Q46, conc. Compound 13.68 µM) was 18.3% and the “Fraction Helix fH” value ([4]; Exon1 Q46, conc. Compound 37.77 µM) was 18.1%. The Kd ([4]; Exon1 Q46 protein) was 60 nM, the “mHTT after 3 h heat shock and following 48 hours of compound treatment in comparison to untreated STHdh 111/111” value [5] was 34% and the remaining activity at 10 µM [5] was 34%. For the same molecule, the “Diffuse mHTT reduction” value ([5]; STHdh 111/111 in comparison to untreated cells, p < 0.0001) was 68%, the “oligomerization of wt α-Synuclein” value ([7]; Compound 4 solved in methanol) was “does not oligomerize” and the “% Volume, Peak 1” value ([7]; by volume, 70 µM equimolar Compound 4 solved in methanol) was 99,4%. For the same molecule, the solubility kinetic [6] was 328 µM (≈ 98.9 µg/mL), the “Blood Brain Barrier Penetrability AUCbrain/AUCplasma” value (Compound 4) was “AUCbrain/AUCplasma = 2.27” and the “penetration of the blood brain area in vivo” value (intravenous, 1 mg/kg body weight, brain tissue) was “penetrates the blood brain area”.
